Laboratory results taken from the NIST ThermoML archive (doi:10.1021/je0340755).
± gives the expanded uncertainty stated by the source.

Assay: xn = mol fraction of the nth substance listed
Settings: 101.3 kPa, Liquid; for viscosity: Capillary tube (Ostwald / Ubbelohde) method

CCC(O)CO (stereo not given) [1,2-butanediol] + O
Settings	mass density [kg/m3]	speed of sound [m/s]	viscosity [mPa·s]
298.15 K, x2 = 0.0471	999.56 ± 0.35	1455.6 ± 12	54.4 ± 0.17
298.15 K, x2 = 0.1478	1001.36 ± 0.34	1480.8 ± 12	47.22 ± 0.22
298.15 K, x2 = 0.2481	1003.09 ± 0.33	1497.6 ± 12	39.78 ± 0.18
298.15 K, x2 = 0.3491	1005.12 ± 0.32	1517.2 ± 12	32.56 ± 0.15
298.15 K, x2 = 0.443	1007.55 ± 0.32	1545.9 ± 13	26.42 ± 0.13
298.15 K, x2 = 0.4971	1009.14 ± 0.32	1564.2 ± 13	23.17 ± 0.12
298.15 K, x2 = 0.5552	1010.88 ± 0.32	1581.1 ± 13	19.92 ± 0.1
298.15 K, x2 = 0.6494	1013.49 ± 0.31	1600.3 ± 13	15.11 ± 0.09
298.15 K, x2 = 0.7491	1015.73 ± 0.31	1622.2 ± 13	10.48 ± 0.078
298.15 K, x2 = 0.8547	1016.98 ± 0.31	1666.2 ± 13	5.959 ± 0.069
298.15 K, x2 = 0.9081	1015.65 ± 0.31	1670.6 ± 14	3.869 ± 0.066
298.15 K, x2 = 0.9144	1015.26 ± 0.3	1667.8 ± 13	3.635 ± 0.066
298.15 K, x2 = 0.9255	1014.39 ± 0.3	1660.6 ± 13	3.232 ± 0.065
298.15 K, x2 = 0.9353	1013.39 ± 0.3	1651 ± 13	2.885 ± 0.065
298.15 K, x2 = 0.9543	1010.65 ± 0.29	1623.1 ± 13	2.241 ± 0.064
298.15 K, x2 = 0.9562	1010.3 ± 0.29	1619.5 ± 13	2.179 ± 0.064
298.15 K, x2 = 0.9598	1009.61 ± 0.29	1612.5 ± 13	2.063 ± 0.064
298.15 K, x2 = 0.97	1007.33 ± 0.28	1589.6 ± 13	1.743 ± 0.064
298.15 K, x2 = 0.9806	1004.38 ± 0.27	1561 ± 13	1.425 ± 0.064
298.15 K, x2 = 0.9902	1001.1 ± 0.26	1531.6 ± 13	1.152 ± 0.063
298.15 K, x2 = 0.9923	1000.29 ± 0.26	1524.8 ± 12	1.095 ± 0.063
298.15 K, x2 = 0.9956	998.96 ± 0.26	1513.5 ± 12	1.006 ± 0.063
308.15 K, x2 = 0.0471	992.15 ± 0.36	1426 ± 12	28.67 ± 0.14
308.15 K, x2 = 0.1478	993.92 ± 0.35	1443.9 ± 12	25.18 ± 0.13
308.15 K, x2 = 0.2481	995.73 ± 0.33	1452.8 ± 12	21.61 ± 0.11
308.15 K, x2 = 0.3491	997.81 ± 0.31	1474 ± 12	18.1 ± 0.1
308.15 K, x2 = 0.443	1000.17 ± 0.3	1496.6 ± 12	15.04 ± 0.091
308.15 K, x2 = 0.4971	1001.68 ± 0.3	1508.1 ± 12	13.39 ± 0.086
308.15 K, x2 = 0.5552	1003.37 ± 0.29	1519.5 ± 12	11.69 ± 0.081
308.15 K, x2 = 0.6494	1006.11 ± 0.29	1542.9 ± 13	9.091 ± 0.075
308.15 K, x2 = 0.7491	1008.77 ± 0.29	1585.6 ± 13	6.504 ± 0.07
308.15 K, x2 = 0.8547	1010.49 ± 0.29	1640.7 ± 13	3.9 ± 0.066
308.15 K, x2 = 0.9081	1009.43 ± 0.29	1647.5 ± 13	2.651 ± 0.065
308.15 K, x2 = 0.9144	1009.1 ± 0.28	1645.9 ± 13	2.509 ± 0.064
308.15 K, x2 = 0.9255	1008.36 ± 0.28	1641.4 ± 13	2.26 ± 0.064
308.15 K, x2 = 0.9353	1007.51 ± 0.28	1635.3 ± 13	2.044 ± 0.064
308.15 K, x2 = 0.9543	1005.2 ± 0.27	1617.1 ± 13	1.635 ± 0.064
308.15 K, x2 = 0.9562	1004.91 ± 0.27	1614.7 ± 13	1.594 ± 0.064
308.15 K, x2 = 0.9598	1004.33 ± 0.27	1610 ± 13	1.519 ± 0.064
308.15 K, x2 = 0.97	1002.44 ± 0.26	1594.4 ± 13	1.308 ± 0.063
308.15 K, x2 = 0.9806	1000 ± 0.26	1574.5 ± 13	1.094 ± 0.063
308.15 K, x2 = 0.9902	997.32 ± 0.26	1552.8 ± 13	0.906 ± 0.063
308.15 K, x2 = 0.9923	996.67 ± 0.27	1547.5 ± 13	0.865 ± 0.063
308.15 K, x2 = 0.9956	995.58 ± 0.27	1538.9 ± 13	0.802 ± 0.063
318.15 K, x2 = 0.0471	984.63 ± 0.38	1396.5 ± 12	16.54 ± 0.1
318.15 K, x2 = 0.1478	986.4 ± 0.36	1415 ± 12	14.53 ± 0.092
318.15 K, x2 = 0.2481	988.13 ± 0.35	1422.4 ± 12	12.47 ± 0.085
318.15 K, x2 = 0.3491	990.15 ± 0.33	1441.3 ± 12	10.46 ± 0.079
318.15 K, x2 = 0.443	992.53 ± 0.32	1462.7 ± 12	8.706 ± 0.075
318.15 K, x2 = 0.4971	994.08 ± 0.31	1474.1 ± 12	7.758 ± 0.073
318.15 K, x2 = 0.5552	995.8 ± 0.3	1485.9 ± 12	6.789 ± 0.071
318.15 K, x2 = 0.6494	998.48 ± 0.28	1510 ± 12	5.314 ± 0.068
318.15 K, x2 = 0.7491	1001.03 ± 0.27	1553.8 ± 13	3.848 ± 0.066
318.15 K, x2 = 0.8547	1003.2 ± 0.27	1614.7 ± 13	2.378 ± 0.064
318.15 K, x2 = 0.9081	1003 ± 0.27	1630.6 ± 13	1.675 ± 0.064
318.15 K, x2 = 0.9144	1002.81 ± 0.27	1630.5 ± 13	1.595 ± 0.064
318.15 K, x2 = 0.9255	1002.34 ± 0.26	1629 ± 13	1.455 ± 0.064
318.15 K, x2 = 0.9353	1001.75 ± 0.26	1626 ± 13	1.334 ± 0.063
318.15 K, x2 = 0.9543	999.98 ± 0.26	1614.7 ± 13	1.105 ± 0.064
318.15 K, x2 = 0.9562	999.74 ± 0.26	1613.2 ± 13	1.083 ± 0.063
318.15 K, x2 = 0.9598	999.27 ± 0.26	1610 ± 13	1.041 ± 0.063
318.15 K, x2 = 0.97	997.69 ± 0.26	1599 ± 13	0.923 ± 0.063
318.15 K, x2 = 0.9806	995.59 ± 0.27	1584.6 ± 13	0.804 ± 0.063
318.15 K, x2 = 0.9902	993.21 ± 0.27	1568.4 ± 13	0.699 ± 0.063
318.15 K, x2 = 0.9923	992.62 ± 0.28	1564.4 ± 13	0.677 ± 0.063
318.15 K, x2 = 0.9956	991.63 ± 0.28	1557.9 ± 13	0.642 ± 0.063
328.15 K, x2 = 0.0471	976.76 ± 0.4	1381.6 ± 12	10.36 ± 0.081
328.15 K, x2 = 0.1478	978.45 ± 0.38	1392.6 ± 12	9.126 ± 0.077
328.15 K, x2 = 0.2481	980.12 ± 0.37	1404 ± 12	7.863 ± 0.074
328.15 K, x2 = 0.3491	982.09 ± 0.35	1421.6 ± 12	6.626 ± 0.071
328.15 K, x2 = 0.443	984.39 ± 0.34	1440 ± 12	5.547 ± 0.069
328.15 K, x2 = 0.4971	985.9 ± 0.33	1450.7 ± 12	4.962 ± 0.068
328.15 K, x2 = 0.5552	987.59 ± 0.32	1464.3 ± 12	4.363 ± 0.067
328.15 K, x2 = 0.6494	990.29 ± 0.3	1490.7 ± 12	3.447 ± 0.066
328.15 K, x2 = 0.7491	993 ± 0.29	1532.6 ± 13	2.533 ± 0.064
328.15 K, x2 = 0.8547	995.64 ± 0.27	1592.7 ± 13	1.615 ± 0.064
328.15 K, x2 = 0.9081	995.96 ± 0.27	1611.9 ± 13	1.177 ± 0.063
328.15 K, x2 = 0.9144	995.86 ± 0.27	1612.7 ± 13	1.127 ± 0.063
328.15 K, x2 = 0.9255	995.56 ± 0.27	1612.9 ± 13	1.04 ± 0.063
328.15 K, x2 = 0.9353	995.14 ± 0.27	1611.8 ± 13	0.964 ± 0.063
328.15 K, x2 = 0.9543	993.79 ± 0.27	1604.2 ± 13	0.821 ± 0.063
328.15 K, x2 = 0.9562	993.61 ± 0.27	1603.4 ± 13	0.807 ± 0.063
328.15 K, x2 = 0.9598	993.23 ± 0.28	1601.5 ± 13	0.781 ± 0.063
328.15 K, x2 = 0.97	991.96 ± 0.28	1594 ± 13	0.707 ± 0.063
328.15 K, x2 = 0.9806	990.23 ± 0.28	1583.2 ± 13	0.633 ± 0.063
328.15 K, x2 = 0.9902	988.23 ± 0.29	1571.2 ± 13	0.568 ± 0.063
328.15 K, x2 = 0.9923	987.73 ± 0.29	1568.9 ± 13	0.554 ± 0.063
328.15 K, x2 = 0.9956	986.9 ± 0.3	1563.4 ± 13	0.532 ± 0.063
338.15 K, x2 = 0.0471	968.75 ± 0.42	1365.8 ± 12	6.896 ± 0.072
338.15 K, x2 = 0.1478	970.35 ± 0.4	1376.1 ± 12	6.061 ± 0.07
338.15 K, x2 = 0.2481	971.96 ± 0.39	1387.3 ± 12	5.201 ± 0.069
338.15 K, x2 = 0.3491	973.85 ± 0.37	1402.7 ± 12	4.361 ± 0.067
338.15 K, x2 = 0.443	976.07 ± 0.36	1420.1 ± 12	3.638 ± 0.066
338.15 K, x2 = 0.4971	977.53 ± 0.35	1430.2 ± 12	3.251 ± 0.065
338.15 K, x2 = 0.5552	979.18 ± 0.34	1443.6 ± 12	2.859 ± 0.065
338.15 K, x2 = 0.6494	981.87 ± 0.33	1468.5 ± 12	2.268 ± 0.064
338.15 K, x2 = 0.7491	984.71 ± 0.31	1507.6 ± 12	1.689 ± 0.064
338.15 K, x2 = 0.8547	987.72 ± 0.3	1565.4 ± 13	1.114 ± 0.063
338.15 K, x2 = 0.9081	988.49 ± 0.29	1587.3 ± 13	0.843 ± 0.063
338.15 K, x2 = 0.9144	988.47 ± 0.29	1588.5 ± 13	0.812 ± 0.063
338.15 K, x2 = 0.9255	988.32 ± 0.29	1590.4 ± 13	0.759 ± 0.063
338.15 K, x2 = 0.9353	988.06 ± 0.29	1591 ± 13	0.713 ± 0.063
338.15 K, x2 = 0.9543	987.1 ± 0.29	1588.9 ± 13	0.626 ± 0.063
338.15 K, x2 = 0.9562	986.96 ± 0.3	1588.1 ± 13	0.618 ± 0.063
338.15 K, x2 = 0.9598	986.68 ± 0.3	1587.6 ± 13	0.602 ± 0.063
338.15 K, x2 = 0.97	985.68 ± 0.3	1583.6 ± 13	0.558 ± 0.063
338.15 K, x2 = 0.9806	984.29 ± 0.3	1577.1 ± 13	0.514 ± 0.063
338.15 K, x2 = 0.9902	982.66 ± 0.31	1570.2 ± 13	0.476 ± 0.063
338.15 K, x2 = 0.9923	982.25 ± 0.31	1568 ± 13	0.467 ± 0.063
338.15 K, x2 = 0.9956	981.55 ± 0.31	1564.9 ± 13	0.455 ± 0.063
